Data: patent publication US8278265B2, “Methods, kits and compositions comprising crotamine” (Fundacao de Amparo a Pesquisa do Estado de Sao Paulo—FAPESP, priority 2005, dated 2012)
Ends that are not written are not given here.

Tests used:
centrosome = assay: Marker for centrosome; format: cell-based; conditions: cells from the peritoneal liquid of mice and ES cells, FIG. 9
Experimental: (§1) To analyze the specific binding of Cy3-crotamine to chromatin and centrosome (a pair of small organelles named the centrioles), the same experimental procedure, as described above, was used, the sole difference consisting in the pre-treatment of ES cells and murine embryonic fibroblasts with 1 μM of free crotamine, followed by treatment with the conjugated crotamine, Cy3-crotamine, for 15 minutes more. A similar experiment was conducted in vivo, by injecting in mice both the conjugated and the free crotamine. As a control, 1 μM of Cy3-crotamine was used and incubated for 15 minutes. For the confocal microscopy analysis, cells were prepared as described above. Experiments with animals were carried out according to the international ethical recommendations for the use of animals.
Embryonic bodies, obtained according to the protocol as described above, after three days, adhered to small glass slides. On the following day, actively proliferating cells were simultaneously labeled with 5-bromo-2′-deoxyuridine (BrDU) and Cy3-crotamine. BrDU-labeled cell detection by the monoclonal antibody anti-BrDU (clone BU-1) was made according to manufacturer's recommendations (Amersham-Pharmacia Biotech). The secondary antibody was conjugated to the fluorescent compound FITC. […] Microscope slides were assembled in a PBS/glycerol solution (1:1) and analysed in a confocal microscope. […]

B16F10 cells tumor = assay: Tumor labeling by cy3-crotamine; format: in vivo, Balb/c mouse; conditions: 5 μg/animal intraperitoneal, 24 hours after
Experimental: The cells were maintained in Dulbecco's modified Eagle's cell culture medium (DMEM; Invitrogen, Carlsbad, Calif.) supplemented with 15% fetal calf serum (FCS; Invitrogen). The cells were kept at 37° C. with humidity and 5% CO2. After preparing a cell suspension with about 5×10^6 cells/ml of PBS [phosphate buffered solution], approximately 0.2 ml of this suspension was subcutaneously or endovenously (retroorbital injection) injected into each Balb/c mouse, of 4 to 6 weeks-old with body weight between 16 to 20 g. For negative control, the animals were injected with 0.2 ml of PBS. Before setting up the experiments, the animals were kept under 12 hour light-dark cycle, and were allowed to have water and food ad libitum. All animals were caged and handled under ethical conditions according to international rules of animal care, stated by the International Animal Welfare Recommendations, and in accordance with the Guidelines for the Use of Animals in Biochemical Research
About 8 to 12 days after subcutaneous injection of B16F10 cells, the visible ‘melanoma’ tumors were removed and analyzed.
To observe the accumulation of fluorescently labeled crotamine [Cy3-crotamine] into tumors, injected mice were treated by a single intraperitoneal injection of 5 μg of cy3-crotamine/animal. 24 hours after, the animals were sacrificed and the ‘melanoma’ tumors and internal tissues were removed and analyzed [frozen/Tissue-Tek and Paraplast block preparations]. The frozen slices were stained with DAPI and analyzed by confocal microscopy. […]
To observe the accumulation of fluorescently labeled crotamine [Cy3-crotamine] into tumors, injected mice were treated by a single intraperitoneal injection of 5 μg of cy3-crotamine/animal. 24 hours after, the animals were sacrificed and the internal tissues (including those showing metastasis) were removed and analyzed [frozen/Tissue-Tek and Paraplast block preparations]. The frozen slices were stained with DAPI and analyzed by confocal microscopy.

[1] = system: cells from the peritoneal liquid and from the murine bone marrow; assay: In vivo incorporation of Cy3-crotamine after intraperitoneal injection; set-up: species or system CD-1 strain mice
Experimental: In vitro assay: Semiconffluent cultures of pluripotent and differentiation ES cells (homogeneous cell population), as well as other cell cultures of normal and tumor origin, were kept in small laminar slides placed in 24-well plates containing appropriate culture medium. Cells were incubated for 2-3 minutes to 72 hours in the presence of Cy3-crotamine, under concentrations between 10 μM and 0.01 μM, or as control, just in the presence of the dye agent Cy3 diluted in 1 ml PBS (control). In in vivo assays, 1 ml of 1 μM Cy3-crotamine or the pure control dye agent Cy3 (1 ml) in PBS were intraperitoneally injected into a mouse (line CD-1). After 3 hours, cells from the bone marrow (mixed cell population), spleen and peritoneal liquid (mixed cell population) were isolated. Cells from the peritoneal liquid adhered to the microscope slides for one hour in RPMI medium supplemented with 10% FCS and no antibiotics at 37° C., under humid atmosphere and 5% CO2. In all assays, cells were washed twice with cold solutions of 0.1 M PBS, pH 7.4, fixed with 3.7% formaldehyde in PBS for fifteen minutes and washed twice with PBS. Microscope slides were prepared in the PBS/glycerol (1:1) solution. Alternatively, non-fixed cells were washed twice with PBS and observed in the confocal microscope.
as §1

mice = assay: Paralysis of the hind legs of mice after intraperitoneal injection; format: in vivo; conditions: sublethal dose, 50 μg of the conjugate (2.5 mg of toxin/kg) intraperitoneally, mouse
Experimental: When injected intraperitoneally, crotamine causes a quick paralysis, in less than 15 minutes, of the hind legs of mice, which is the typical physiological effect of this toxin.
Crotamine (1 mg) was suspended in 1 ml buffer (100 mM sodium carbonate/bicarbonate, pH 9.3) and conjugated to the fluorescent dye Cy3, a cyanine derivative supplied as a bifunctional form of an NHS-type ester in the Fluorolink Cy3 dye pack kit (Amersham Biosciences). To verify if Cy3-crotamine is biologically active, a sublethal dose, 50 μg of the conjugate (corresponding to 2.5 mg of toxin/kg) was intraperitoneally injected into a mouse. The crotamine linked to Cy3 complex caused the typical paralysis response of the hind legs in less than 15 minutes after injection.

blastocyts = assay: Internalization of Cy3-conjugated crotamine in blastocysts in vitro; format: cell-based, murine; conditions: cell cytoplasm, FIG. 1
Experimental: Embryonic bodies (EBs) were obtained by the hanging drop method, as described above, using culture medium containing crotamine at various concentrations (100 μM to 0.1 μM), changing the medium every two to three days. To analyze the crotamine location in EBs under development, crotamine was substituted with crotamine linked to Cy3 (Cy3-crotamine) during the final 24 hours of incubation. Compact murine morulae (8-16 cells) were obtained from the oviduct and cultivated for 24 hours at 37° C. in 5% CO2, in individual microwells of V-bottom plates (Costar) with […] microwells in M16 medium (supplier: Sigma) and Cy3-crotamine (1-0.1 μM). After 24 hours of culture, normally developed blastocyst numbers were compared within the control and the experimental group.

3T3 cell line = assay: Transfection of GFP plasmid DNA by crotamine peptide fragments; format: cell-based, mouse; conditions: for treatment time giving the best result: 24 and 48 hours tested
Experimental: 3T3 cells (spontaneously immortalized primary mouse fibroblasts) or COS-7 (cells derived from kidney of African green monkey) were plated (1.5×10^5) in 6-wells plate (dimension of 6×35 mm), containing DMEM culture medium with 10% fetal bovine serum (FBS) and […] L-glutamine, with no antibiotics, 1 or 2 days before the transfection until reaching 60% to 80% confluence of the plate. Transfection was performed in DMEM medium ([…]) with 2% FBS and 80 or 100 μM chloroquine. Aggregates (crotamine plus 2 μg DNA in 0.2 ml HBM) were added in each well, on the cells in culture. After five hours of incubation at 37° C., under humid atmosphere and 5% CO2, the medium was substituted with another one containing 10% FBS. In the control culture wells, DNA was added in the same concentration and they were processed in the same way of experimental samples. After 24 and 48 hours, cells were washed with PBSA and fixed with 3.7% formaldehyde. The transfection medium was substituted with DMEM medium, containing 10% FBS, and the transgenic expression was then evaluated 24 to 48 hours after the transfection. The efficiency of transfection as determined by DNA-peptide aggregates was compared with that obtained by using lipofectamine, following routine protocol.
Two peptides were synthesized based on crotamine sequence, e.g. two sequences corresponding to fragments of crotamine, i.e. Crot2-18 ([…] (SEQ ID NO: 3)), herewithin designated as peptide 1, and Crot27-39 ([…] (SEQ ID NO: 4)), herewithin designated as peptide 2. The ability and efficiency of these two peptides to transfect cells in vitro and in vivo were analysed. The same protocol which was used for natural crotamine, as described in Example 9 was followed: Peptides were mixed with the plasmid DNA containing the gene coding for GFP (green fluorescent protein). After forming the complex with DNA, peptides were put on Petri dishes containing 3T3 cell line and left in the CO2 oven for 24 and 48 hours. Subsequently, cells were fixed and the result of transfection was analysed by confocal microscopy. As controls, the same cells were transfected by using Lipofectamin, as well as the crotamine molecule with 42 amino acid residues.

[2] = subcutaneous injection of B16F10
[3] = three hours after intraperitoneal injection, CD-1 mice

Substance | marking of the centrosome cycle (centrosome) | fluorescent signal inside the cell mass of B16F10 cells tumor (B16F10 cells tumor; endovenous injection of B16F10) | fluorescent signal inside the cell mass of B16F10 cells tumor (B16F10 cells tumor; [2]) | localization in tumor cells (overlay with DAPI) (B16F10 cells tumor; [2]) | fluorescence in cytoplasm of mouse megakaryocyte ([1]; FIG. 5E-G) | fluorescence after pretreatment with non-labeled crotamine ([1]; cells pretreated with non-labeled crotamine, megakaryocyte, FIG. 5H) | signal in cytoplasm of living cells of the peritoneal liquid ([1]; living cells, FIG. 3A-C) | signal in nucleus of living cells of the peritoneal liquid ([1]; living cells, FIG. 3A-C) | signals on cells from the murine bone marrow [1, 3] | signals on cytoplasm and nucleus of cells from the peritoneal liquid [1, 3] | time to typical paralysis response of the hind legs after injection (mice) | fluorescence in blastocysts (confocal microscopy) (blastocyts) | signals from actively proliferating 3T3 cells compared with the original crotamine (3T3 cell line) | treatment time giving the best result (3T3 cell line; 3T3 cells) | green fluorescence corresponding to GFP expression (3T3 cell line; 3T3 cells, in comparison with peptide 2, confocal microscopy)
Cy3-crotamine: crotamine conjugated to the fluorescent dye Cy3, a cyanine derivative (YKQCHKKGGHCFPKEKICLPPSSDFGKMDCRWRWKCCKKGSG; disulfide (positions not given here); not fully specified (bridges); ends not checked; also: Cy3 dye label, site not given here; UniProt Q9PWF3 23-64, looked up) | functions as a marker for the centrosome cycle | strong fluorescent signal | strong fluorescent signal | observed in the nucleus of the cells | weak fluorescence | Strong fluorescence restricted to the cytoplasm | strong | moderate | strong signals | strong signals | less than 15 minutes | intense fluorescence | – | – | –
KMDCRWRWKCCKK [peptide 2] | – | – | – | – | – | – | – | – | – | – | – | – | no distinctive signals | 48 h | –
KQCHKKGGHCFPKEKIC [peptide 1] | – | – | – | – | – | – | – | – | – | – | – | – | no distinctive signals | 48 h | more intense green fluorescence
